Target: T1, human GIPR (Homo sapiens, UniProt P48546)
T1 construct: host or cells: CHO-K1
T1 sequence (P48546 22-466): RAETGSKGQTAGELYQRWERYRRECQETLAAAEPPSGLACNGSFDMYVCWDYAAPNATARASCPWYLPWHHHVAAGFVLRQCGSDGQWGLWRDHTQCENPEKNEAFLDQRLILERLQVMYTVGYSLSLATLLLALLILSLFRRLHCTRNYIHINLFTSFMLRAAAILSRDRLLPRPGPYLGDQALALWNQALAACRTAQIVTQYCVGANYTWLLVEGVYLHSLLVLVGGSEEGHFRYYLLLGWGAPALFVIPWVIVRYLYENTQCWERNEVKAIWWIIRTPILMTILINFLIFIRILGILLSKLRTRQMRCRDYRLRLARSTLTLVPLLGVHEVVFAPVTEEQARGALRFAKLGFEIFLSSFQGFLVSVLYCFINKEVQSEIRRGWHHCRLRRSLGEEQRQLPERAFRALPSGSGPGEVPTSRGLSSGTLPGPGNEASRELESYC
Experiment: cAMP production in CHO-K1 cells expressing human GIPR (LANCE cAMP assay)
Type: cell-based
Conditions: for Emax: CHO-K1, read-out: % activation of cAMP (maximal stimulation)
Experimental: CHO—K1 cells expressing human GIPR were obtained from DiscoverX Corporation (Fremont, Calif.). The cells were cultured in Ham's F-12 nutrient media supplemented with 10% foetal bovine serum, 800 μg/ml geneticin, 300 μg/ml hydromycin, 2 mM L-glutamine, and Penicillin-streptomycin (100 units, 100 μg) at 37° C. in a 5% CO2 incubator. The cells were harvested at 90% confluence.
The cells were suspended in Ham's F-12 nutrient media to a concentration of 200,000 cells/ml. The cells were then plated in a 384 well plate at with […] of the suspension added per well. The cells were incubated overnight at 37° C. in a 5% CO2 incubator.
The activity of the compounds was determined by stimulating the CHO—K1 cells with the test compound, and measuring the levels of cAMP produced. The activity of the compounds was compared to the activity of native GIP, as GIP stimulates cAMP production. 6 μl of the test compound in stimulation buffer (990 ml Hank's Balanced Salt solution (HBSS) (1×) (Invitrogen Corp #14025-092), 10 ml Hepes buffer solution (1 mol·L) (Invitrogen Corp 15630-080), 1 g BSA (final 0.1%), and 1 ml IBMX 250 mM stock prepared fresh in DMSO (Sigma-Aldrich 15879)) were added to cells, followed by 6 μl of Alexa Fluor® 647-anti cAMP antibody (Perkin Elmer) in stimulation buffer. […] The well plate was centrifuged for 3 min at 300 rpm, and incubated at room temperature for 45 minutes. 12 μl of detection mixture (biotin cAMP and EUW8044 labeled streptavidin (Eu-SA) in cAMP Detection Buffer (Perkin Elmer)) was added and incubated for 60 min at room temperature.
The levels of cAMP produced were measured according to the detailed protocol outlined in the Perkin Elmer LANCE cAMP Assay Perkin Elmer Lance cAMP Kit manual. The activity of the compounds was compared to the activity of native GIP.
The plates are read on a TRF detection instrument, EnVision® (Perkin Elmer) (excitation at 340 nm and emission at 665 nm). The values of the cAMP signal are obtained from the standard cAMP curve and used to determine the amount of maximal stimulation, and EC50 for stimulating the cAMP signal.

Structure (SMILES)	EC50	Emax
CC[C@H](C)[C@H](NC(=O)[C@H](CO)NC(=O)[C@H](Cc1ccc(O)cc1)NC(=O)[C@H](CC(=O)O)NC(=O)[C@H](CO)NC(=O)[C@@H](NC(=O)[C@H](Cc1ccccc1)NC(=O)[C@@H](NC(=O)CNC(=O)[C@H](CCC(=O)O)NC(=O)[C@H](C)NC(=O)CCc1ccc(O)cc1)[C@@H](C)O)[C@@H](C)CC)C(=O)N[C@@H](C)C(=O)N[C@@H](CCSC)C(=O)N[C@@H](CC(=O)O)C(=O)N[C@@H](CCCCN)C(=O)N[C@H](C(=O)N[C@@H](Cc1c[nH]cn1)C(=O)N[C@@H](CCC(N)=O)C(=O)N[C@@H](CCC(N)=O)C(=O)N[C@@H](CC(=O)O)C(=O)N[C@@H](Cc1ccccc1)C(=O)N[C@H](C(=O)N[C@@H](CC(N)=O)C(=O)N[C@@H](Cc1c[nH]c2ccccc12)C(=O)N[C@@H](CC(C)C)C(=O)N[C@@H](CC(C)C)C(=O)N[C@@H](C)C(=O)N[C@@H](CCC(N)=O)C(=O)N[C@@H](CCCCN)C(N)=O)C(C)C)[C@@H](C)CC [Example 7]	0.095 nM	103%
CC[C@H](C)[C@H](NC(=O)[C@H](CO)NC(=O)[C@H](Cc1ccc(O)cc1)NC(=O)[C@H](CC(=O)O)NC(=O)[C@H](CO)NC(=O)[C@@H](NC(=O)[C@H](Cc1ccccc1)NC(=O)[C@@H](NC(=O)CNC(=O)[C@H](CCC(=O)O)NC(=O)[C@H](C)NC(=O)[C@@H](Cc1ccccc1)NC(C)=O)[C@@H](C)O)[C@@H](C)CC)C(=O)N[C@@H](C)C(=O)N[C@@H](CCSC)C(=O)N[C@@H](CC(=O)O)C(=O)N[C@@H](CCCCN)C(=O)N[C@H](C(=O)N[C@@H](Cc1c[nH]cn1)C(=O)N[C@@H](CCC(N)=O)C(=O)N[C@@H](CCC(N)=O)C(=O)N[C@@H](CC(=O)O)C(=O)N[C@@H](Cc1ccccc1)C(=O)N[C@H](C(=O)N[C@@H](CC(N)=O)C(=O)N[C@@H](Cc1c[nH]c2ccccc12)C(=O)N[C@@H](CC(C)C)C(=O)N[C@@H](CC(C)C)C(=O)N[C@@H](C)C(=O)N[C@@H](CCC(N)=O)C(=O)N[C@@H](CCCCN)C(N)=O)C(C)C)[C@@H](C)CC [Example 8]	0.685 nM	102%
CC[C@H](C)[C@H](NC(=O)[C@H](CO)NC(=O)[C@H](Cc1ccc(O)cc1)NC(=O)[C@H](CC(=O)O)NC(=O)[C@H](CO)NC(=O)[C@@H](NC(=O)[C@H](Cc1ccccc1)NC(=O)[C@@H](NC(=O)CNC(=O)[C@H](CCC(=O)O)NC(=O)[C@H](C)NC(=O)CCc1ccccc1)[C@@H](C)O)[C@@H](C)CC)C(=O)N[C@@H](C)C(=O)N[C@@H](CCSC)C(=O)N[C@@H](CC(=O)O)C(=O)N[C@@H](CCCCN)C(=O)N[C@H](C(=O)N[C@@H](Cc1c[nH]cn1)C(=O)N[C@@H](CCC(N)=O)C(=O)N[C@@H](CCC(N)=O)C(=O)N[C@@H](CC(=O)O)C(=O)N[C@@H](Cc1ccccc1)C(=O)N[C@H](C(=O)N[C@@H](CC(N)=O)C(=O)N[C@@H](Cc1c[nH]c2ccccc12)C(=O)N[C@@H](CC(C)C)C(=O)N[C@@H](CC(C)C)C(=O)N[C@@H](C)C(=O)N[C@@H](CCC(N)=O)C(=O)N[C@@H](CCCCN)C(N)=O)C(C)C)[C@@H](C)CC [Example 9]	0.797 nM	101%
CC[C@H](C)[C@H](NC(=O)[C@H](CO)NC(=O)[C@H](Cc1ccc(O)cc1)NC(=O)[C@H](CC(=O)O)NC(=O)[C@H](CO)NC(=O)[C@@H](NC(=O)[C@H](Cc1ccccc1)NC(=O)[C@@H](NC(=O)CNC(=O)[C@H](CCC(=O)O)NC(=O)[C@H](C)NC(=O)[C@@H](Cc1c[nH]c2ccccc12)NC(C)=O)[C@@H](C)O)[C@@H](C)CC)C(=O)N[C@@H](C)C(=O)N[C@@H](CCSC)C(=O)N[C@@H](CC(=O)O)C(=O)N[C@@H](CCCCN)C(=O)N[C@H](C(=O)N[C@@H](Cc1c[nH]cn1)C(=O)N[C@@H](CCC(N)=O)C(=O)N[C@@H](CCC(N)=O)C(=O)N[C@@H](CC(=O)O)C(=O)N[C@@H](Cc1ccccc1)C(=O)N[C@H](C(=O)N[C@@H](CC(N)=O)C(=O)N[C@@H](Cc1c[nH]c2ccccc12)C(=O)N[C@@H](CC(C)C)C(=O)N[C@@H](CC(C)C)C(=O)N[C@@H](C)C(=O)N[C@@H](CCC(N)=O)C(=O)N[C@@H](CCCCN)C(N)=O)C(C)C)[C@@H](C)CC [Example 10]	0.1 nM	102%
CC[C@H](C)[C@H](NC(=O)[C@H](CO)NC(=O)[C@H](Cc1ccc(O)cc1)NC(=O)[C@H](CC(=O)O)NC(=O)[C@H](CO)NC(=O)[C@@H](NC(=O)[C@H](Cc1ccccc1)NC(=O)[C@@H](NC(=O)CNC(=O)[C@H](CCC(=O)O)NC(=O)[C@H](C)NC(=O)[C@@H](Cc1cccnc1)NC(C)=O)[C@@H](C)O)[C@@H](C)CC)C(=O)N[C@@H](C)C(=O)N[C@@H](CCSC)C(=O)N[C@@H](CC(=O)O)C(=O)N[C@@H](CCCCN)C(=O)N[C@H](C(=O)N[C@@H](Cc1c[nH]cn1)C(=O)N[C@@H](CCC(N)=O)C(=O)N[C@@H](CCC(N)=O)C(=O)N[C@@H](CC(=O)O)C(=O)N[C@@H](Cc1ccccc1)C(=O)N[C@H](C(=O)N[C@@H](CC(N)=O)C(=O)N[C@@H](Cc1c[nH]c2ccccc12)C(=O)N[C@@H](CC(C)C)C(=O)N[C@@H](CC(C)C)C(=O)N[C@@H](C)C(=O)N[C@@H](CCC(N)=O)C(=O)N[C@@H](CCCCN)C(N)=O)C(C)C)[C@@H](C)CC [Example 11]	0.08 nM	102%
CC[C@H](C)[C@H](NC(=O)[C@H](CO)NC(=O)[C@H](Cc1ccc(O)cc1)NC(=O)[C@H](CC(=O)O)NC(=O)[C@H](CO)NC(=O)[C@@H](NC(=O)[C@H](Cc1ccccc1)NC(=O)[C@@H](NC(=O)CNC(=O)[C@H](CCC(=O)O)NC(=O)[C@H](C)NC(=O)[C@@H](Cc1ccccc1Cl)NC(C)=O)[C@@H](C)O)[C@@H](C)CC)C(=O)N[C@@H](C)C(=O)N[C@@H](CCSC)C(=O)N[C@@H](CC(=O)O)C(=O)N[C@@H](CCCCN)C(=O)N[C@H](C(=O)N[C@@H](Cc1c[nH]cn1)C(=O)N[C@@H](CCC(N)=O)C(=O)N[C@@H](CCC(N)=O)C(=O)N[C@@H](CC(=O)O)C(=O)N[C@@H](Cc1ccccc1)C(=O)N[C@H](C(=O)N[C@@H](CC(N)=O)C(=O)N[C@@H](Cc1c[nH]c2ccccc12)C(=O)N[C@@H](CC(C)C)C(=O)N[C@@H](CC(C)C)C(=O)N[C@@H](C)C(=O)N[C@@H](CCC(N)=O)C(=O)N[C@@H](CCCCN)C(N)=O)C(C)C)[C@@H](C)CC [Example 12]	0.121 nM	104%
CC[C@H](C)[C@H](NC(=O)[C@H](CO)NC(=O)[C@H](Cc1ccc(O)cc1)NC(=O)[C@H](CC(=O)O)NC(=O)[C@H](CO)NC(=O)[C@@H](NC(=O)[C@H](Cc1ccccc1)NC(=O)[C@@H](NC(=O)CNC(=O)[C@H](CCC(=O)O)NC(=O)[C@H](C)NC(=O)[C@@H](Cc1cccc(Cl)c1)NC(C)=O)[C@@H](C)O)[C@@H](C)CC)C(=O)N[C@@H](C)C(=O)N[C@@H](CCSC)C(=O)N[C@@H](CC(=O)O)C(=O)N[C@@H](CCCCN)C(=O)N[C@H](C(=O)N[C@@H](Cc1c[nH]cn1)C(=O)N[C@@H](CCC(N)=O)C(=O)N[C@@H](CCC(N)=O)C(=O)N[C@@H](CC(=O)O)C(=O)N[C@@H](Cc1ccccc1)C(=O)N[C@H](C(=O)N[C@@H](CC(N)=O)C(=O)N[C@@H](Cc1c[nH]c2ccccc12)C(=O)N[C@@H](CC(C)C)C(=O)N[C@@H](CC(C)C)C(=O)N[C@@H](C)C(=O)N[C@@H](CCC(N)=O)C(=O)N[C@@H](CCCCN)C(N)=O)C(C)C)[C@@H](C)CC [Example 13]	0.072 nM	106%
CC[C@H](C)[C@H](NC(=O)[C@H](CO)NC(=O)[C@H](Cc1ccc(O)cc1)NC(=O)[C@H](CC(=O)O)NC(=O)[C@H](CO)NC(=O)[C@@H](NC(=O)[C@H](Cc1ccccc1)NC(=O)[C@@H](NC(=O)CNC(=O)[C@H](CCC(=O)O)NC(=O)[C@H](C)NC(=O)[C@@H](Cc1ccc(Cl)cc1)NC(C)=O)[C@@H](C)O)[C@@H](C)CC)C(=O)N[C@@H](C)C(=O)N[C@@H](CCSC)C(=O)N[C@@H](CC(=O)O)C(=O)N[C@@H](CCCCN)C(=O)N[C@H](C(=O)N[C@@H](Cc1c[nH]cn1)C(=O)N[C@@H](CCC(N)=O)C(=O)N[C@@H](CCC(N)=O)C(=O)N[C@@H](CC(=O)O)C(=O)N[C@@H](Cc1ccccc1)C(=O)N[C@H](C(=O)N[C@@H](CC(N)=O)C(=O)N[C@@H](Cc1c[nH]c2ccccc12)C(=O)N[C@@H](CC(C)C)C(=O)N[C@@H](CC(C)C)C(=O)N[C@@H](C)C(=O)N[C@@H](CCC(N)=O)C(=O)N[C@@H](CCCCN)C(N)=O)C(C)C)[C@@H](C)CC [Example 14]	0.025 nM	106%
